# “Also recorded” adds a separate entry of the source.
# Assays:
# Miscibility with water = type: physicochemical; conditions: this work
# human U2-OS cells = assay: CALUX cytotoxicity assay; type: cell-based; conditions: for LEC cytotoxicity: PC20, 24 h exposure
# Source text: (§1) DCM ≥99.5%, chloroform ≥99.5%, DMSO ≥99.0% were purchased from VWR. N,N-diethyl-4-nitroaniline ≥98.0% was purchased from Alfa Aeser. Cyrene was supplied by Circa group. N-butylpyrrolidinone was supplied by Eastman chemicals. N,N-dimethylformamide 99.9% and N,N-dimethylacetamide 99.9% were purchased from Fischer. The flakes of Ultrason® E3020 P Polyarylethersulfone of 55,000 Da were obtained from INGE.BASF, Germany. The CALUX cell lines have been described previously.[1] They are based on human U2-OS cells (ATCC, HTB-96) stably transfected with an expression construct for the full-length human receptor under investigation, and a reporter construct consisting of multimerized responsive elements for the cognate receptor coupled to a minimal promoter element (TATA) and a luciferase gene. Cells were maintained as described previously,[2] using cell culture media and supplements from Fisher Scientific as described in the experimental procedures section. […]
# (§2) In vitro reporter gene assays
# (§3) The automated CALUX assays were carried out similarly as described earlier,[12] with some adaptations. In brief, the assay was performed in CO2 independent medium (Fisher Scientific, […]
# (§4) supplement (Fisher Scientific, 11574466), 10 U/mL penicillin and 10 µg/mL streptomycin. A cell suspension in assay medium was made of 1 × 10^5cells/mL, and white 384-wells plates were seeded with 30 µl cell suspension/well. After 24 h, exposure medium was prepared. A dilution series in 0.5log unit increments of each test compound (in DMSO) was added to a 96-wells plate containing assay medium (2% v/v). Of this exposure mixture, 30 µl was added to the assay plates containing the CALUX cells, resulting in a final DMSO concentration of 1%. Additionally, DMSO blanks and a full dose response curve of the relevant reference compound were included on each plate. All samples were tested in triplicate. The preparation of the compound dilution series as well as the exposure of the cells were performed on a Hamilton StarLET liquid handling robot coupled to a Cytomat incubator.
# (§5) Directly after exposure, plates were sealed with non-breathing plate seals (Plate sealer, easy seal transparent; Greiner-Bio-One, 676001). After 24 h the exposure medium was removed using an EL406 washer-dispenser (BioTek) and 10 µl/well triton lysisbuffer was added by the EL406.
# (§6) Subsequently, the luciferase signal was measured in a luminometer (InfinitePro coupled to a Connect Stacker, both TECAN). In order to be able to detect receptor antagonism, several assays were also performed in antagonistic mode. The assay procedure was as described above, with the only exception that the EC50 concentration of the reference agonist was present during the exposure.
# (§7) The luminometer data was analysed as follows; the average of the triplicate wells was determined, and the average blank (DMSO) value was subtracted. For receptor-based assays the maximum response elicited by the reference compound was set to 100% (full receptor- or pathway activation), and the other values were scaled accordingly. GraphPad Prism was used to fit a sigmoidal curve through the data (four parameters, variable slope). The PC10 concentration was reported as the lowest effect concentration (LEC), which is defined as the concentration where the response elicited by the test compound equals 10% of the maximum response of the reference compound. For antagonist- and cytotoxicity experiments, PC20 values were determined instead, which was defined as the concentration where the test compound causes a 20% decrease in the basal signal, which was […]
# (§8) curve, the signal induction above background (DMSO) was determined, and the concentration where the compound elicited a 1.5-fold increase above background was used as LEC.
# TRβ = target: T1, TRβ (Homo sapiens, UniProt P10828); assay: TRβ CALUX reporter gene assay; type: cell-based; set-up: key: –: no effect observed up to the highest test concentration; conditions: PC10, 24 h exposure
# T1 construct: expression construct for the full-length human receptor under investigation; expressed in transfected cells; host or cells: human U2-OS cells (ATCC HTB-96), stably transfected
# T1 sequence (P10828 1-461): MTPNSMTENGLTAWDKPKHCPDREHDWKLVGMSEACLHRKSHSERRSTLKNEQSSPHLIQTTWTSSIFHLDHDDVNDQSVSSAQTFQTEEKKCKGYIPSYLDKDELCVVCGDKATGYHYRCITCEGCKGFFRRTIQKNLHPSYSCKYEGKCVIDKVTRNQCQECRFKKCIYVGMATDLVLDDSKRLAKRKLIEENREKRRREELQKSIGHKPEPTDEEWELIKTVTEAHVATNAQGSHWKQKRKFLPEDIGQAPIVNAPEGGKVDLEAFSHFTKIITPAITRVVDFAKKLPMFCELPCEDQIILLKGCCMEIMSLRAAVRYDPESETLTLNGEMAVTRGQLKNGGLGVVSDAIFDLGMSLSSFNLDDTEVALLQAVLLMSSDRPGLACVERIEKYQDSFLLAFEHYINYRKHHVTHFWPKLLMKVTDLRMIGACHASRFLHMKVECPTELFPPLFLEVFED
# Source text: as §1, with “2-methylimidazole 99.0%, zinc(II) nitrate hexahydrate ≥99.0%, para-cymene 99.0%, 1,4-dioxane 99.8% (anhydrous), 4-nitroaniline ≥99.0%, 1-octanol ≥99.0%, diglyme ≥99.0%, DMSO-d6 (99.8% D) and chloroform-d (99.8% D) were purchased from Sigma-Aldrich. Toluene ≥99.0%, hexane ≥99.5%, DCM” for “DCM”
# as §2, §3, §4, §5
# Subsequently, the luciferase signal was measured in a luminometer (InfinitePro coupled to a Connect Stacker, both TECAN). In order to be able to detect receptor antagonism, several assays were also performed in antagonistic mode. […]
# The luminometer data was analysed as follows; the average of the triplicate wells was determined, and the average blank (DMSO) value was subtracted. […] For antagonist- and cytotoxicity experiments, PC20 values were determined instead, which was defined as the concentration where the test compound causes a 20% decrease in the basal signal, which was […]
# as §8
# Nrf2 = Nrf2 CALUX assay (oxidative stress); type: cell-based, human; set-up: key: –: no effect observed up to the highest test concentration; conditions: cell signaling pathway assay, 24 h exposure
# Source text: Six of the CALUX assays (TCF through p53) detect activation of several cellular signaling pathways, which are indicative of general stress and acute toxicity, but also a range of more specific types of toxicity, including reproductive toxicity. […]
# DCM ≥99.5%, chloroform ≥99.5%, DMSO ≥99.0% were purchased from VWR. […]
# Polyarylethersulfone of 55,000 Da were obtained from INGE.BASF, Germany. The CALUX cell lines have been described previously.[1] They are based on human U2-OS cells (ATCC, HTB-96) stably transfected with an expression construct for the full-length human receptor under investigation, and a reporter construct consisting of multimerized responsive elements for the cognate receptor coupled to a minimal promoter element (TATA) and a luciferase gene. Cells were maintained as described previously,[2] using cell culture media and supplements from Fisher Scientific as described in the experimental procedures section. […]
# as §2, §3, §4, §5, §6
# as §7, with “The PC10 concentration was reported as the lowest effect concentration (LEC), which is defined as the concentration where the response elicited by the test compound equals 10% of the maximum response of the reference compound.” left out
# as §8
Water misc. (Miscibility with water),LEC TRβ (TRβ),SMILES,LEC cytotoxicity (human U2-OS cells) [Log M],LEC Nrf2 (Nrf2),cytotoxicity lowest effect concentration (LEC) (human U2-OS cells) [mM]
miscible; also recorded: yes^[a],–,"CCCCN1CCCC1=O [NBP, N‐Butylpyrrolidinone, reference compound]",−2.1,–,
yes^[a],–,"CN1CCCC1=O [NMP, N‐methyl‐2‐pyrrolidone, reference compound]",−1.4,–,40
no^[a],–,"CCCCN(CCCC)C(=O)CCC(=O)N(CCCC)CCCC [TBSA, N,N,N′,N′‐tetrabutylsuccindiamide]",−3.4,–,

# The remaining lines, values behind:
SMILES,Water misc. (Miscibility with water),LEC TRβ (TRβ),LEC cytotoxicity (human U2-OS cells) [Log M],LEC Nrf2 (Nrf2),cytotoxicity lowest effect concentration (LEC) (human U2-OS cells) [mM]
"CCCCN(CC)C(=O)CCC(=O)N(CC)CCCC [EBSA, N,N′‐diethyl‐N,N′‐dibutylsuccindiamide]",no^[a],–,−3.1,–,
"CCCCN(C)C(=O)CCC(=O)N(C)CCCC [MBSA, N,N′‐dimethyl‐N,N′‐dibutylsuccindiamide]",no^[a],–,−2.3,−2.9 Log M,

# Reference: publication PMC7318222, “A Family of Water‐Immiscible, Dipolar Aprotic, Diamide Solvents from Succinic Acid” (Chemsuschem, 2020)
